From ChEMBL document CHEMBL4028802, “DILIrank: the largest reference drug list ranked by the risk for developing drug-induced liver injury in humans” (Drug Discov Today, 2016)

Tests used:
Homo sapiens [1] = species: Homo sapiens; experiment: Liver toxicity in human assessed as induction of drug-induced liver injury by measuring severity class index
Homo sapiens [2] = species: Homo sapiens; experiment: Liver toxicity in human assessed as induction of drug-induced liver injury by measuring verified drug-induced liver injury concern status
Wherever DILI severity class is given: key of the grades not given here.

## Nc1nc(=O)n([C@@H]2CS[C@H](CO)O2)cc1F [EMTRICITABINE]
Homo sapiens [1]
  DILI_severity_class: 2
Homo sapiens [2]
  DILI_Concern: Ambiguous-Dili-Concern

## CN(C)CCOC(C)(c1ccccc1)c1ccccn1 (stereo not drawn) [DOXYLAMINE]
Homo sapiens [1]
  DILI_severity_class: 0
Homo sapiens [2]
  DILI_Concern: No-Dili-Concern

## C=CCOc1ccc(CC(=O)O)cc1Cl [ALCLOFENAC]
Homo sapiens [1]
  DILI_severity_class: 8
Homo sapiens [2]
  DILI_Concern: Most-Dili-Concern

## CC(=O)[C@@]1(O)CC[C@H]2[C@@H]3C=C(C)C4=CC(=O)CC[C@]4(C)[C@H]3CC[C@@]21C
Homo sapiens [1]
  DILI_severity_class: 1
Homo sapiens [2]
  DILI_Concern: Ambiguous-Dili-Concern

## CCOC(=O)C1=C[C@@H](OC(CC)CC)[C@H](NC(C)=O)[C@@H](N)C1 [OSELTAMIVIR]
Homo sapiens [1]
  DILI_severity_class: 3
Homo sapiens [2]
  DILI_Concern: Ambiguous-Dili-Concern

## CC(=O)Oc1cc2c(s1)CCN(C(C(=O)C1CC1)c1ccccc1F)C2.Cl (stereo not drawn) [PRASUGREL HYDROCHLORIDE]
Homo sapiens [1]
  DILI_severity_class: 0
Homo sapiens [2]
  DILI_Concern: Less-Dili-Concern

## Cn1c(=O)c2[nH]cnc2n(C)c1=O.Cn1c(=O)c2[nH]cnc2n(C)c1=O.NCCN [AMINOPHYLLINE]
Homo sapiens [1]
  DILI_severity_class: 0
Homo sapiens [2]
  DILI_Concern: No-Dili-Concern

## Cl.N [AMMONIUM CHLORIDE]
Homo sapiens [1]
  DILI_severity_class: 0
Homo sapiens [2]
  DILI_Concern: No-Dili-Concern

## O=[As][As+](=O)[O-] (stereo not drawn) [ARSENIC TRIOXIDE]
Homo sapiens [1]
  DILI_severity_class: 3
Homo sapiens [2]
  DILI_Concern: Ambiguous-Dili-Concern

## Cc1cn([C@H]2C[C@H](N=[N+]=[N-])[C@@H](CO)O2)c(=O)[nH]c1=O [ZIDOVUDINE]
Homo sapiens [1]
  DILI_severity_class: 8
Homo sapiens [2]
  DILI_Concern: Most-Dili-Concern

## CN1CCN(C(=O)O[C@H]2c3nccnc3C(=O)N2c2ccc(Cl)cn2)CC1 [ESZOPICLONE]
Homo sapiens [1]
  DILI_severity_class: 3
Homo sapiens [2]
  DILI_Concern: Ambiguous-Dili-Concern

## COC(=O)CCc1ccc(OCC(O)CNC(C)C)cc1 (stereo not drawn) [ESMOLOL]
Homo sapiens [1]
  DILI_severity_class: 0
Homo sapiens [2]
  DILI_Concern: No-Dili-Concern

## COCC1=C(C(=O)O)N2C(=O)[C@@H](NC(=O)/C(=N\OC)c3csc(N)n3)[C@H]2SC1 [CEFPODOXIME]
Homo sapiens [1]
  DILI_severity_class: 3
Homo sapiens [2]
  DILI_Concern: Ambiguous-Dili-Concern

## Nc1nc(/C(=C/CC(=O)O)C(=O)N[C@@H]2C(=O)N3C(C(=O)O)=CCS[C@H]23)cs1 [CEFTIBUTEN]
Homo sapiens [1]
  DILI_severity_class: 3
Homo sapiens [2]
  DILI_Concern: Ambiguous-Dili-Concern

## CC1(C)S[C@@H]2[C@H](NC(=O)Cc3ccccc3)C(=O)N2[C@H]1C(=O)O [PENICILLIN G]
Homo sapiens [1]
  DILI_severity_class: 3
Homo sapiens [2]
  DILI_Concern: Less-Dili-Concern

## O=C1C(O)=C([C@H]2CC[C@H](c3ccc(Cl)cc3)CC2)C(=O)c2ccccc21 [ATOVAQUONE]
Homo sapiens [1]
  DILI_severity_class: 8
Homo sapiens [2]
  DILI_Concern: Ambiguous-Dili-Concern

## NC(N)=Nc1nc(CSCCN/C=N/S(=O)(=O)c2ccc(Br)cc2)cs1 [EBROTIDINE]
Homo sapiens [1]
  DILI_severity_class: 8
Homo sapiens [2]
  DILI_Concern: Most-Dili-Concern

## C[C@]12CC[C@@H]3c4ccc(OC(=O)N(CCCl)CCCl)cc4CC[C@H]3[C@@H]1CC[C@@H]2O [ESTRAMUSTINE]
Homo sapiens [1]
  DILI_severity_class: 4
Homo sapiens [2]
  DILI_Concern: Most-Dili-Concern

## CN(C)Cc1ccc(CSCCN/C(=C\[N+](=O)[O-])NCc2ccc3c(c2)OCO3)o1 [NIPEROTIDINE]
Homo sapiens [1]
  DILI_severity_class: 8
Homo sapiens [2]
  DILI_Concern: Most-Dili-Concern

## CS(=O)(=O)O.C[C@H](N)C(=O)N[C@@H](C)C(=O)N[C@H]1[C@@H]2CN(c3nc4c(cc3F)c(=O)c(C(=O)O)cn4-c3ccc(F)cc3F)C[C@@H]21 [ALATROFLOXACIN MESYLATE]
Homo sapiens [1]
  DILI_severity_class: 8
Homo sapiens [2]
  DILI_Concern: Most-Dili-Concern

## [82Rb+].[Cl-] [RUBIDIUM CHLORIDE RB 82]
Homo sapiens [1]
  DILI_severity_class: 0
Homo sapiens [2]
  DILI_Concern: No-Dili-Concern

## N[C@@H]1CON=C1O [CYCLOSERINE]
Homo sapiens [1]
  DILI_severity_class: 3
Homo sapiens [2]
  DILI_Concern: Ambiguous-Dili-Concern

## CC(=O)S[C@@H]1CC2=CC(=O)CC[C@]2(C)[C@H]2CC[C@@]3(C)[C@@H](CC[C@@]34CCC(=O)O4)[C@H]12 [SPIRONOLACTONE]
Homo sapiens [1]
  DILI_severity_class: 2
Homo sapiens [2]
  DILI_Concern: Less-Dili-Concern

## CC(C)C[C@H](NC(=O)[C@H](Cc1ccccc1)NC(=O)c1cnccn1)B(O)O [BORTEZOMIB]
Homo sapiens [1]
  DILI_severity_class: 7
Homo sapiens [2]
  DILI_Concern: Most-Dili-Concern

## COc1ccnc(C[S+]([O-])c2nc3ccc(OC(F)F)cc3[nH]2)c1OC (stereo not drawn) [PANTOPRAZOLE]
Homo sapiens [1]
  DILI_severity_class: 3
Homo sapiens [2]
  DILI_Concern: Less-Dili-Concern

## CC[C@@H](CO)NC(=O)[C@@H]1C=C2c3cccc4c3c(cn4C)C[C@H]2N(C)C1 [METHYSERGIDE]
Homo sapiens [1]
  DILI_severity_class: 0
Homo sapiens [2]
  DILI_Concern: No-Dili-Concern

## C[N+]1(C)CCC(OC(=O)C(O)(c2ccccc2)C2CCCC2)C1 (stereo not drawn) [GLYCOPYRRONIUM]
Homo sapiens [1]
  DILI_severity_class: 0
Homo sapiens [2]
  DILI_Concern: No-Dili-Concern

## COc1ccc2cc([C@H](C)C(=O)O)ccc2c1 [NAPROXEN]
Homo sapiens [1]
  DILI_severity_class: 3
Homo sapiens [2]
  DILI_Concern: Less-Dili-Concern

## CC(C)CN(C[C@@H](OP(=O)(O)O)[C@H](Cc1ccccc1)NC(=O)O[C@H]1CCOC1)S(=O)(=O)c1ccc(N)cc1 [FOSAMPRENAVIR]
Homo sapiens [1]
  DILI_severity_class: 3
Homo sapiens [2]
  DILI_Concern: Ambiguous-Dili-Concern

## CC(=O)Oc1ccc(C(c2ccc(OC(C)=O)cc2)c2ccccn2)cc1 [BISACODYL]
Homo sapiens [1]
  DILI_severity_class: 0
Homo sapiens [2]
  DILI_Concern: No-Dili-Concern

## CC[C@H](C)C[C@H](C)CCCCCCCCC(=O)N[C@H]1C[C@@H](O)[C@@H](NCCN)NC(=O)[C@@H]2[C@@H](O)CCN2C(=O)[C@H]([C@H](O)CCN)NC(=O)[C@H]([C@H](O)[C@@H](O)c2ccc(O)cc2)NC(=O)[C@@H]2C[C@@H](O)CN2C(=O)[C@H]([C@@H](C)O)NC1=O [CASPOFUNGIN]
Homo sapiens [1]
  DILI_severity_class: 7
Homo sapiens [2]
  DILI_Concern: Ambiguous-Dili-Concern

## C/C(=C\c1csc(C)n1)[C@@H]1C[C@@H]2O[C@]2(C)CCC[C@H](C)[C@H](O)[C@@H](C)C(=O)C(C)(C)[C@@H](O)CC(=O)N1 [IXABEPILONE]
Homo sapiens [1]
  DILI_severity_class: 7
Homo sapiens [2]
  DILI_Concern: Ambiguous-Dili-Concern

## Cl.Cl.O=C(O)COCCN1CCN([C@H](c2ccccc2)c2ccc(Cl)cc2)CC1 [LEVOCETIRIZINE DIHYDROCHLORIDE]
Homo sapiens [1]
  DILI_severity_class: 4
Homo sapiens [2]
  DILI_Concern: Less-Dili-Concern

## OCC(S)CS (stereo not drawn) [DIMERCAPROL]
Homo sapiens [1]
  DILI_severity_class: 0
Homo sapiens [2]
  DILI_Concern: No-Dili-Concern

## OC[C@H]1O[C@@H](O[C@@H]2[C@@H](CO)O[C@](O)(CO)[C@H]2O)[C@H](O)[C@@H](O)[C@H]1O [LACTULOSE]
Homo sapiens [1]
  DILI_severity_class: 0
Homo sapiens [2]
  DILI_Concern: No-Dili-Concern

## CCCCCC(=O)O[C@]1(C(C)=O)CC[C@H]2[C@@H]3CCC4=CC(=O)CC[C@]4(C)[C@H]3CC[C@@]21C [HYDROXYPROGESTERONE CAPROATE]
Homo sapiens [1]
  DILI_severity_class: 2
Homo sapiens [2]
  DILI_Concern: Ambiguous-Dili-Concern

## NCC1(CC(=O)O)CCCCC1 [GABAPENTIN]
Homo sapiens [1]
  DILI_severity_class: 3
Homo sapiens [2]
  DILI_Concern: Less-Dili-Concern

## Cc1ncc(CO)c(CO)c1O [PYRIDOXINE]
Homo sapiens [1]
  DILI_severity_class: 0
Homo sapiens [2]
  DILI_Concern: No-Dili-Concern

## COc1ccccc1OCC(O)COC(N)=O (stereo not drawn) [METHOCARBAMOL]
Homo sapiens [1]
  DILI_severity_class: 5
Homo sapiens [2]
  DILI_Concern: Ambiguous-Dili-Concern

## CC(S)C(=O)NCC(=O)O (stereo not drawn) [TIOPRONIN]
Homo sapiens [1]
  DILI_severity_class: 3
Homo sapiens [2]
  DILI_Concern: Ambiguous-Dili-Concern

## O.O=P(O)(O)C(O)(Cn1ccnc1)P(=O)(O)O [ZOLEDRONIC ACID]
Homo sapiens [1]
  DILI_severity_class: 0
Homo sapiens [2]
  DILI_Concern: Less-Dili-Concern

## O=C(O)C[C@H](O)C[C@H](O)/C=C/c1c(C2CC2)nc2ccccc2c1-c1ccc(F)cc1 [PITAVASTATIN]
Homo sapiens [1]
  DILI_severity_class: 3
Homo sapiens [2]
  DILI_Concern: Ambiguous-Dili-Concern

## COc1c(C)c2c(c(O)c1C/C=C(\C)CCC(=O)O)C(=O)OC2 [MYCOPHENOLIC ACID]
Homo sapiens [1]
  DILI_severity_class: 3
Homo sapiens [2]
  DILI_Concern: Ambiguous-Dili-Concern

## CC(C)(N)Cc1ccccc1 [PHENTERMINE]
Homo sapiens [1]
  DILI_severity_class: 0
Homo sapiens [2]
  DILI_Concern: Less-Dili-Concern

## C[N+]1(C)[C@@H]2C[C@@H](OC(=O)[C@H](CO)c3ccccc3)C[C@H]1[C@@H]1O[C@@H]12.[Br-] [METHSCOPOLAMINE BROMIDE]
Homo sapiens [1]
  DILI_severity_class: 0
Homo sapiens [2]
  DILI_Concern: No-Dili-Concern

## CN(C)CCOC(c1ccc(Cl)cc1)c1ccccn1 (stereo not drawn) [CARBINOXAMINE]
Homo sapiens [1]
  DILI_severity_class: 0
Homo sapiens [2]
  DILI_Concern: No-Dili-Concern

## CN(C)CC[C@@H](c1ccc(Br)cc1)c1ccccn1 [DEXBROMPHENIRAMINE]
Homo sapiens [1]
  DILI_severity_class: 0
Homo sapiens [2]
  DILI_Concern: No-Dili-Concern

## CC(C)[C@H]1CC[C@H](C(=O)N[C@H](Cc2ccccc2)C(=O)O)CC1 [NATEGLINIDE]
Homo sapiens [1]
  DILI_severity_class: 3
Homo sapiens [2]
  DILI_Concern: Ambiguous-Dili-Concern

## Nc1ccn([C@@H]2O[C@H](CO)[C@@H](O)C2(F)F)c(=O)n1 [GEMCITABINE]
Homo sapiens [1]
  DILI_severity_class: 8
Homo sapiens [2]
  DILI_Concern: Most-Dili-Concern
